{"source": "paper PMC3260554", "about": "(Nature Neuroscience, 2010)", "key": {"[1]": {"tested_on": "mice", "assay": "Acetic acid-induced writhing", "assay_type": "in vivo, Swiss Webster mice"}, "[2]": {"tested_on": "FAAH"}, "[3]": {"target": "T1, FAAH (Mus musculus, UniProt O08914)", "T1 sequence (O08914 1-579)": "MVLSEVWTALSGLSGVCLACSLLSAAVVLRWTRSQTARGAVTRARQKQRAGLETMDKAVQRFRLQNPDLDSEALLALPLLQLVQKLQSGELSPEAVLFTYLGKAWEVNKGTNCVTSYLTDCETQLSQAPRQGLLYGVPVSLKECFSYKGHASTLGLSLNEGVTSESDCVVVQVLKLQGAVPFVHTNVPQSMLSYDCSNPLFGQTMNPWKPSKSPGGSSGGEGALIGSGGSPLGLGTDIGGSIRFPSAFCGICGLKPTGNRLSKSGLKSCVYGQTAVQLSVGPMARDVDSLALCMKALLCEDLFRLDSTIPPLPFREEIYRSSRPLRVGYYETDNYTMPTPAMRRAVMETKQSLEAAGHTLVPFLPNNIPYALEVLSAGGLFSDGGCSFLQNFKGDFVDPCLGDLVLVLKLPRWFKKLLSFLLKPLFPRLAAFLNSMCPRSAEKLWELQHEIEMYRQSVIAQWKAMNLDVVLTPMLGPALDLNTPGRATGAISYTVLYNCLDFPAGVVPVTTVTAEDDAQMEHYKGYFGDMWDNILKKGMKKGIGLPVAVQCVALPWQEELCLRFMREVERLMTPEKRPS", "assay_type": "in vivo, Swiss Webster mice"}, "[4]": {"assay": "Temporal tissue distribution of URB937 in liver, brain and serum", "assay_type": "in vivo, Swiss Webster mice", "settings": "1 mg-kg^−1, i.p., mice"}, "[5]": {"assay": "Drug distribution coefficient n-octanol / buffer pH 7.4", "assay_type": "physicochemical", "settings": "n-octanol / aqueous buffer pH 7.4, 25±1°C, mean±s.e.m, n = 3"}, "[6]": {"tested_on": "human epithelial TC7 cells", "assay": "Permeability and efflux ratio through polarized TC7 monolayers", "assay_type": "in vitro ADME", "settings": "mean of 2 independent experiments"}, "[7]": {"tested_on": "Fos protein", "assay": "Formalin-induced spinal cord Fos protein expression", "assay_type": "in vivo, Sprague-Dawley rats"}, "[8]": {"settings": "ex vivo 1 h after injection, 1 mg-kg^−1 i.p., Swiss Webster mice, n = 3"}, "[9]": {"settings": "s.c., mice, 1 h after injection"}}, "note": "Where two headings read alike, the source gives them in different places."}
{"smiles": "COc1ccc(C(=O)c2c(C)n(CCN3CCOCC3)c3cc(I)ccc23)cc1", "note": "[AM630]", "values": [{"measurement": "Effect of antagonist on the antinociceptive effect of URB937 (writhing)", "setting": "[1]; antagonist 1 mg-kg^−1, s.c., with URB937 1 mg-kg^−1 s.c.", "value": "ineffective"}]}
{"smiles": "NC(=O)c1cccc(-c2cccc(OC(=O)NC3CCCCC3)c2)c1", "note": "[Compound 1a, cyclohexylcarbamic acid 3′-carbamoylbiphenyl-3-yl ester, reference compound]", "values": [{"measurement": "Effect on brain FAAH activity", "setting": "[2]; in vivo, ip", "value": "markedly reduced"}]}
{"smiles": "NC(=O)c1cccc(-c2cc(OC(=O)NC3CCCCC3)ccc2O)c1", "note": "[Compound 1b]", "values": [{"measurement": "Time course of peripheral FAAH inhibition in vivo", "setting": "[3]; Supplementary Figure 1", "value": "rapidly and lastingly"}, {"measurement": "FAAH Inhibition in brain", "setting": "[3]; [8]", "value": "−3.0 ± 8.0", "unit": "%"}, {"measurement": "FAAH Inhibition in liver", "setting": "[3]; [8]", "value": "91.7 ± 0.7", "unit": "%"}, {"measurement": "ED50 for FAAH inhibition in brain", "setting": "[3]; [9]", "value": 40, "unit": "mg/kg"}, {"measurement": "ED50 for FAAH inhibition in liver", "setting": "[3]; [9]", "value": 0.2, "unit": "mg/kg"}, {"measurement": "Distribution in blood and liver after systemic administration", "setting": "[4]", "value": "distributed rapidly in blood and liver"}, {"measurement": "Presence in brain tissue after systemic administration", "setting": "[4]", "value": "undetectable"}, {"measurement": "distribution coefficient, LogDoct,pH7.4", "setting": "[5]", "value": "3.03±0.01"}, {"measurement": "% recovery A–B", "setting": "[6]", "value": 83, "unit": "%"}, {"measurement": "% recovery B-A", "setting": "[6]", "value": 95, "unit": "%"}, {"measurement": "permeability B-A", "setting": "[6]", "value": 37.1, "unit": "×10⁻⁶ cm/s"}, {"measurement": "Effect on brain FAAH activity", "setting": "[2]; 25 mg-kg^−1, i.p.", "value": "no effect"}]}
{"smiles": "COc1ccc2c(c1)c(CC(=O)O)c(C)n2C(=O)c1ccc(Cl)cc1", "note": "[indomethacin]", "values": [{"measurement": "Effect on acetic acid-induced writhing relative to URB937", "setting": "[1]; 1 mg-kg^−1, s.c., 1 h before test", "value": "comparable in efficacy"}]}
{"smiles": "Cc1c(C(=O)NN2CCCCC2)nn(-c2ccc(Cl)cc2Cl)c1-c1ccc(Cl)cc1", "note": "[rimonabant]", "values": [{"measurement": "Effect on Fos levels when administered without URB937", "setting": "[7]; 2 mg-kg^−1, i.p., rats", "value": "did not significantly alter Fos levels"}, {"measurement": "Effect of antagonist on URB937 suppression of Fos expression", "setting": "[7]; rimonabant 2 mg-kg^−1, i.p., with URB937", "value": "prevented"}]}
